Earlier results on one compound are cited in patent US7807830B2, “Manufacture of pure hydralazine salts” (Navinta LLC, priority 2005, dated 2010).

SMILES strings stand for the structures. Counter-ions that a name gives are not always drawn. Like-named read-outs stand apart in the source and are kept apart here.

Regarding `NNc1nncc2ccccc12` [Hydralazine hydrochloride, 1-hydrazinophthalazine], the onset of action is, setting by setting: (given intravenously) 10 to 20 min; (oral administration) 10 to 30 min. Where the note is “in vivo”, the duration of action was 3 to 4 h. The “maximum hypotensive effect in” value (in vivo) is 10 to 80 min.
